# Results published in PMC4537067 (ACS infectious diseases, 2015).
# Counter-ions that a name gives are not always drawn. Like-named read-outs stand apart in the source and are kept apart here.
# Assays:
# [1] = test system: EBOV minigenome activity; assay: microbe, parasite or virus in culture; format: cell-based, Ebola virus
# [2] = test system: EBOV minigenome activity
# [3] = in vitro; settings: human
# [4] = test system: EBOV minigenome activity; assay: cells; settings: Zaire ebolavirus, HEK-293T, 24 h
# [5] = test system: HEK293T cells
# [6] = test system: EBOV-GFP; format: cell-based, Ebola virus
# [7] = test system: Vero E6 cells
# [8] = test system: EBOV minigenome activity; format: cell-based, Ebola virus
Structure (SMILES),% inhibition in screen [1] [%],SI (CC50/IC50) [2],CC50 [3] [nM],IC50 [4] [nM],further results
O=c1cnn([C@@H]2O[C@H](CO)[C@@H](O)[C@H]2O)c(=O)[nH]1 [6-Azauridine],–,–,–,–,"inhibition at 7 µM ([1]; Zaire ebolavirus, 24 h, read-out: inhibition of minigenome activity (positive control)): ~70%"
CC(=O)Oc1c2c(c(CC=C(C)C)c3c1C(=O)C1=C[C@@H]4CC5C(C)(C)OC(C/C=C(\C)C(=O)O)(C4=O)[C@@]15O3)OC(C)(CCC=C(C)C)C=C2 (stereo partly drawn) [acetyl isogambogic acid],99.0,0.983,2880,2940,–
Nc1ncn([C@@H]2O[C@H](CO)[C@@H](O)[C@H]2O)c(=O)n1 [azacitidine],76.9,>12.466,> 50000,4010,–
C[C@@]12C(=O)OC(=O)[C@]1(C)[C@H]1CC[C@@H]2O1 [cantharidin],87.3,>4.415,> 50000,11300,IC50 [2]: 11300 nM
CO[C@H]1C=C[C@@]23c4cc5c(cc4CN(C[C@@H]2O)[C@H]3C1)OCO5 [crinamine],91.5,>13.196,–,–,IC50 [2]: 3790 nM; CC50 [5]: > 50000 nM
C[C@@H]1C[C@@H]([C@H](O)CC2CC(=O)NC(=O)C2)C(=O)[C@@H](C)C1 [cycloheximide],97.9,–,> 50000,608,reduction of EBOV replication (EBOV-GFP) [6]: 96%; cytotoxicity [7]: cytotoxic at higher concentrations
C[C@H]1O[C@@H](O[C@H]2[C@@H](O)C[C@H](O[C@H]3[C@@H](O)C[C@H](O[C@H]4CC[C@@]5(C)[C@H](CC[C@@H]6[C@@H]5CC[C@]5(C)[C@@H](C7=CC(=O)OC7)CC[C@]65O)C4)O[C@@H]3C)O[C@@H]2C)C[C@H](O)[C@@H]1O [digitoxin],92.5,0.62,31,50,–
CN(C)CCOC(c1ccccc1)c1ccccc1.Cn1c(=O)c2[nH]c(Cl)nc2n(C)c1=O [dramamine],57.8,–,–,–,IC50 [2]: > 50000 nM; CC50 [5]: > 50000 nM
CC[C@H]1CN2CCc3cc(OC)c(OC)cc3[C@@H]2C[C@@H]1C[C@H]1NCCc2cc(OC)c(OC)cc21 [emetine],98.3,–,> 50000,1470,reduction of EBOV replication (EBOV-GFP) [6]: 99%; cytotoxicity [7]: cytotoxic at higher concentrations
O=c1[nH]cc(F)c(=O)[nH]1 [fluorouracil],–,–,> 50000,> 50000,–
CC(C)=CCC[C@]1(C)C=Cc2c(O)c3c(c(CC=C(C)C)c2O1)O[C@]12C(=C[C@@H]4CC1C(C)(C)O[C@@]2(C/C=C(/C)C(N)=O)C4=O)C3=O [gambogic amide],100.0,0.45,454,1010,–
CC(=O)O[C@@H]1C[C@H]2C(C)(C)C(=O)C=C[C@]2(C)[C@H]2CC[C@@]3(C)[C@H](c4ccoc4)OC(=O)[C@H]4O[C@]43[C@@]21C [gedunin],72.9,6.829,5480,803,reduction of virus replication (EBOV-GFP) [6]: 98%; cell death (cytotoxicity) [7]: little cell death
Cc1ccc(C)c(OCCCC(C)(C)C(=O)O)c1 [gemfobrozil],62.1,–,–,–,IC50 [2]: > 50000 nM; CC50 [5]: > 50000 nM
CC(=O)O[C@H]1C[C@H](O[C@H]2[C@@H](O)C[C@H](O[C@H]3[C@@H](O)C[C@H](O[C@H]4CC[C@@]5(C)[C@H](CC[C@@H]6[C@@H]5C[C@@H](O)[C@]5(C)[C@@H](C7=CC(=O)OC7)CC[C@]65O)C4)O[C@@H]3C)O[C@@H]2C)O[C@H](C)[C@H]1O[C@@H]1O[C@H](CO)[C@@H](O)[C@H](O)[C@H]1O [lanatoside C],100.0,0.694,177,255,–
CN(Cc1cnc2nc(N)nc(N)c2n1)c1ccc(C(=O)N[C@@H](CCC(=O)O)C(=O)O)cc1 [methotrexate],67.1,–,> 50000,> 50000,–
COc1c(C)c2c(c(O)c1C/C=C(\C)CCC(=O)O)C(=O)OC2 [mycophenolic acid],90.5,–,> 50000,316,reduction of virus replication (EBOV-GFP) [6]: 96%; cell death (cytotoxicity) [7]: little cell death; effect of guanosine addition on inhibition of minigenome activity [8]: rescued minigenome activity at all concentrations
CC1=CC(=O)c2c(O)cccc2C1=O [plumbagin],98.3,0.823,756,919,–
COc1ccc(C[C@H](N)C(=O)N[C@H]2[C@@H](O)[C@H](n3cnc4c(N(C)C)ncnc43)O[C@@H]2CO)cc1 [puromycin hydrochloride],99.7,4.043,3590,889,–
C[C@]12CC[C@H]3[C@@H](CC[C@]4(O)C[C@@H](O)CC[C@]34C=O)[C@@]1(O)CC[C@@H]2C1=CC(=O)OC1 [strophanthidin],100.0,0.423,491,1160,–
Nc1ncnc2c1ncn2[C@@H]1O[C@H](CO)[C@@H](O)[C@@H]1O [vidarabine],56.1,–,> 50000,> 50000,–
